Experimental data as given in patent US20100104614A1, “PROVIDONE COMPOSITIONS FOR WOUND HEALING” (priority 2008, published 2010).

Test: Treatment of non-healing dog bite wounds in a patient (Example 1)
Format: in vivo, human
Details: course of antibiotics (a cephalosporin and flagyl) and daily dressing changes; after five weeks
Procedure: A patient presented with six non-healing dog bite wounds, one on their forearm, and the rest on their lower extremeties. Their wounds were treated with a course of antibiotics (a cephalosporin and flagyl) and daily dressing changes. […] Further treatment with hyperbaric oxygen was being contemplated.
Approximately one tablespoon of povidone powder was sprinkled over the patient's wounds. Within four days, wounds had completely healed.

Structure (SMILES): Cc1ncc([N+](=O)[O-])n1CCO [flagyl]
- wound healing outcome of prior treatment: remained unhealed
